Results taken from US20210101874A1, “MICROBIOCIDAL OXADIAZOLE DERIVATIVES” (SYNGENTA PARTICIPATIONS AG, priority 2017, published 2021).

Columns and labels:
[1] = system: Glomerella lagenarium (Colletotrichum lagenarium); assay: Glomerella lagenarium (Colletotrichum lagenarium) liquid culture / cucumber / preventative (anthracnose); assay type: cell-based; settings: Colletotrichum orbiculare; 20 ppm in the applied formulation; conidia in PDB nutrient broth, 24° C.; 3 to 4 days after application; compared to untreated; read-out: disease control (inhibition of growth measured photometrically)
Experimental: Mycelia fragments or conidia suspensions of a fungus prepared either freshly from liquid cultures of the fungus or from cryogenic storage, are directly mixed into nutrient broth. DMSO solutions of the test compound (max. 10 mg/ml) are diluted with 0.025% Tween20 by a factor of 50 and 10 µl of this solution is pipetted into a microtiter plate (96-well format). The nutrient broth containing the fungal spores/mycelia fragments is then added to give an end concentration of the tested compound. The test plates are incubated in the dark at 24° C. and 96% relative humidity. The inhibition of fungal growth is determined photometrically after 2 to 7 days, depending on the pathosystem, and percent antifungal activity relative to the untreated check is calculated. Conidia of the fungus from cryogenic storage are directly mixed into nutrient broth (PDB—potato dextrose broth). After placing a (DMSO) solution of test compound into a microtiter plate (96-well format), the nutrient broth containing the fungal spores is added. The test plates are incubated at 24° C. and the inhibition of growth is measured photometrically 3 to 4 days after application. The following compounds at 20 ppm in the applied formulation give at least 80% disease control in this test when compared to untreated control under the same conditions, which show extensive disease development.

[2] = system: Puccinia recondita f. sp. Tritici; assay: Puccinia recondita f. sp. tritici / wheat / leaf disc preventative (brown rust); assay type: in vivo; settings: foliar, 200 ppm in the applied formulation, wheat leaf segments cv. Kanzler, inoculated 1 day after application, compared to untreated, assessed 7 to 9 days after application, read-out: disease control
Experimental: Leaf disks or leaf segments of various plant species are cut from plants grown in a greenhouse. The cut leaf disks or segments are placed in multiwell plates (24-well format) onto water agar. The leaf disks are sprayed with a test solution before (preventative) or after (curative) inoculation. Compounds to be tested are prepared as DMSO solutions (max. 10 mg/ml) which are diluted to the appropriate concentration with 0.025% Tween20 just before spraying. The inoculated leaf disks or segments are incubated under defined conditions (temperature, relative humidity, light, etc.) according to the respective test system. A single evaluation of disease level is carried out 3 to 14 days after inoculation, depending on the pathosystem. Percent disease control relative to the untreated check leaf disks or segments is then calculated. Wheat leaf segments cv. Kanzler were placed on agar in multiwell plates (24-well format) and sprayed with the formulated test compound diluted in water. The leaf disks were inoculated with a spore suspension of the fungus 1 day after application. The inoculated leaf segments were incubated at 19° C. and 75% relative humidity (rh) under a light regime of 12 hours light/12 hours darkness in a climate cabinet and the activity of a compound was assessed as percent disease control compared to untreated when an appropriate level of disease damage appears in untreated check leaf segments (7 to 9 days after application). The following compounds at 200 ppm in the applied formulation give at least 80% disease control in this test when compared to untreated control leaf disks under the same conditions, which show extensive disease development.

[3] = system: Puccinia recondita f. sp. Tritici; assay: Puccinia recondita f. sp. tritici / wheat / leaf disc curative (brown rust); assay type: in vivo; settings: foliar, 200 ppm in the applied formulation, wheat leaf segments cv. Kanzler, applied 1 day after inoculation, compared to untreated, assessed 6 to 8 days after application, read-out: disease control
Experimental: Leaf disks or leaf segments of various plant species are cut from plants grown in a greenhouse. The cut leaf disks or segments are placed in multiwell plates (24-well format) onto water agar. The leaf disks are sprayed with a test solution before (preventative) or after (curative) inoculation. Compounds to be tested are prepared as DMSO solutions (max. 10 mg/ml) which are diluted to the appropriate concentration with 0.025% Tween20 just before spraying. The inoculated leaf disks or segments are incubated under defined conditions (temperature, relative humidity, light, etc.) according to the respective test system. A single evaluation of disease level is carried out 3 to 14 days after inoculation, depending on the pathosystem. Percent disease control relative to the untreated check leaf disks or segments is then calculated.
Wheat leaf segments cv. Kanzler are placed on agar in multiwell plates (24-well format). The leaf segments are then inoculated with a spore suspension of the fungus. Plates were stored in darkness at 19° C. and 75% relative humidity. The formulated test compound diluted in water was applied 1 day after inoculation. The leaf segments were incubated at 19° C. and 75% relative humidity under a light regime of 12 hours light/12 hours darkness in a climate cabinet and the activity of a compound was assessed as percent disease control compared to untreated when an appropriate level of disease damage appears in untreated check leaf segments (6 to 8 days after application).
The following compounds at 200 ppm in the applied formulation give at least 80% disease control in this test when compared to untreated control leaf disks under the same conditions, which show extensive disease development.

SMILES	inhibition at 20 ppm [1] [%]	pest or weed control at 200 ppm [2] [%]	pest or weed control at 200 ppm [3] [%]
C#CCNS(=O)(=O)N(C)Cc1ccc(-c2noc(C(F)(F)F)n2)cc1 [Compound 1.19, 3-[4-[[methyl(prop-2-ynylsulfamoyl)amino]methyl]phenyl]-5-(trifluoromethyl)-1,2,4-oxadiazole]	≥ 80	≥ 80	≥ 80
C#CCNS(=O)(=O)N(Cc1ccc(-c2noc(C(F)(F)F)n2)cc1)C1CC1 [Compound 1.20, 3-[4-[[cyclopropyl(prop-2-ynylsulfamoyl)amino]methyl]phenyl]-5-(trifluoromethyl)-1,2,4-oxadiazole]	≥ 80		≥ 80
CCCS(=O)(=O)N(C)Cc1ccc(-c2noc(C(F)(F)F)n2)cc1 [Compound 1.25, N-methyl-N-[[4-[5-(trifluoromethyl)-1,2,4-oxadiazol-3-yl]phenyl]methyl] propane-1-sulfonamide]	≥ 80	≥ 80	≥ 80
CCN(Cc1ccc(-c2noc(C(F)(F)F)n2)cc1)S(=O)(=O)c1ccn(C)n1 [Compound 1.29, N-ethyl-1-methyl-N-[[4-[5-(trifluoromethyl)-1,2,4-oxadiazol-3-yl]phenyl]methyl] pyrazole-3-sulfonamide]	≥ 80	≥ 80	≥ 80
CCN(Cc1ccc(-c2noc(C(F)(F)F)n2)cc1)S(=O)(=O)C1CC1 [Compound 1.33, N-ethyl-N-[[4-[5-(trifluoromethyl)-1,2,4-oxadiazol-3-yl]phenyl]methyl] cyclopropanesulfonamide]	≥ 80	≥ 80	≥ 80
C=CCS(=O)(=O)N(CC)Cc1ccc(-c2noc(C(F)(F)F)n2)cc1 [Compound 1.34, N-ethyl-N-[[4-[5-(trifluoromethyl)-1,2,4-oxadiazol-3-yl]phenyl]methyl] prop-2-ene-1-sulfonamide]	≥ 80	≥ 80	≥ 80
CCN(Cc1ccc(-c2noc(C(F)(F)F)n2)cc1)S(=O)(=O)CC1CCOC1 (stereo not shown) [Compound 1.35, N-ethyl-1-tetrahydrofuran-3-yl-N-[[4-[5-(trifluoromethyl)-1,2,4-oxadiazol-3-yl]phenyl]methyl] methanesulfonamide]	≥ 80	≥ 80	≥ 80
CCN(Cc1ccc(-c2noc(C(F)(F)F)n2)cc1)S(=O)(=O)CCOC [Compound 1.37, N-ethyl-2-methoxy-N-[[4-[5-(trifluoromethyl)-1,2,4-oxadiazol-3-yl]phenyl]methyl] ethanesulfonamide]	≥ 80	≥ 80	≥ 80
C/C=C/S(=O)(=O)N(CC)Cc1ccc(-c2noc(C(F)(F)F)n2)cc1 [Compound 1.39, (E)-N-ethyl-N-[[4-[5-(trifluoromethyl)-1,2,4-oxadiazol-3-yl]phenyl]methyl] prop-1-ene-1-sulfonamide]	≥ 80	≥ 80	≥ 80
CN(Cc1ccc(-c2noc(C(F)(F)F)n2)cc1)S(=O)(=O)c1ccn(C)n1 [Compound 1.41, N,1-dimethyl-N-[[4-[5-(trifluoromethyl)-1,2,4-oxadiazol-3-yl]phenyl]methyl] pyrazole-3-sulfonamide]	≥ 80	≥ 80	≥ 80
C=CCS(=O)(=O)N(C)Cc1ccc(-c2noc(C(F)(F)F)n2)cc1 [Compound 1.46, N-methyl-N-[[4-[5-(trifluoromethyl)-1,2,4-oxadiazol-3-yl]phenyl]methyl] prop-2-ene-1-sulfonamide]	≥ 80	≥ 80	≥ 80
CN(Cc1ccc(-c2noc(C(F)(F)F)n2)cc1)S(=O)(=O)CC1CCOC1 (stereo not shown) [Compound 1.47, N-methyl-1-tetrahydrofuran-3-yl-N-[[4-[5-(trifluoromethyl)-1,2,4-oxadiazol-3-yl]phenyl]methyl] methanesulfonamide]	≥ 80	≥ 80	≥ 80
COCCS(=O)(=O)N(C)Cc1ccc(-c2noc(C(F)(F)F)n2)cc1 [Compound 1.49, 2-methoxy-N-methyl-N-[[4-[5-(trifluoromethyl)-1,2,4-oxadiazol-3-yl]phenyl]methyl] ethanesulfonamide]	≥ 80	≥ 80	≥ 80
C/C=C/S(=O)(=O)N(C)Cc1ccc(-c2noc(C(F)(F)F)n2)cc1 [Compound 1.51, (E)-N-methyl-N-[[4-(5-(trifluoromethyl)-1,2,4-oxadiazol-3-yl]phenyl]methyl] prop-1-ene-1-sulfonamide]	≥ 80	≥ 80	≥ 80
CN(Cc1ccc(-c2noc(C(F)(F)F)n2)cc1)S(=O)(=O)CC1CC1 [Compound 1.52, 1-cyclopropyl-N-methyl-N-[[4-[5-(trifluoromethyl)-1,2,4-oxadiazol-3-yl]phenyl]methyl] methanesulfonamide]	≥ 80	≥ 80	≥ 80
CNS(=O)(=O)N(C)Cc1ccc(-c2noc(C(F)(F)F)n2)cc1 [Compound 1.56, 3-[4-[[methyl (methylsulfamoyl)amino]methyl]phenyl]-5-(trifluoromethyl)-1,2,4-oxadiazole]	≥ 80	≥ 80	≥ 80
CCN(Cc1ccc(-c2noc(C(F)(F)F)n2)cc1)S(=O)(=O)CC(=O)OC [Compound 1.59, methyl 2-[ethyl-[[4-[5-(trifluoromethyl)-1,2,4-oxadiazol-3-yl]phenyl]methyl]sulfamoyl]acetate]	≥ 80	≥ 80	≥ 80
C=CCS(=O)(=O)N(CCC)Cc1ccc(-c2noc(C(F)(F)F)n2)cc1 [Compound 1.70, N-propyl-N-[[4-[5-(trifluoromethyl)-1,2,4-oxadiazol-3-yl]phenyl]methyl] prop-2-ene-1-sulfonamide]	≥ 80		≥ 80
CCCN(Cc1ccc(-c2noc(C(F)(F)F)n2)cc1)S(=O)(=O)N(C)C [Compound 1.81, N-(dimethylsulfamoyl)-N-[[4-[5-(trifluoromethyl)-1,2,4-oxadiazol-3-yl]phenyl]methyl] propan-1-amine]	≥ 80		≥ 80
CC(C)S(=O)(=O)NCc1ccc(-c2noc(C(F)(F)F)n2)cc1F [Compound 2.21, N-[[2-fluoro-4-[5-(trifluoromethyl)-1,2,4-oxadiazol-3-yl]phenyl]methyl] propane-2-sulfonamide]			≥ 80
